Assay results reported in ChEMBL document CHEMBL1817566, “Halogen-substituted (C-β-D-glucopyranosyl)-hydroquinone regioisomers: synthesis, enzymatic evaluation and their binding to glycogen phosphorylase” (Bioorg Med Chem, 2011).

Biological target: T1, Glycogen phosphorylase, muscle form (Oryctolagus cuniculus, UniProt P00489)
T1 sequence (P00489 whole entry): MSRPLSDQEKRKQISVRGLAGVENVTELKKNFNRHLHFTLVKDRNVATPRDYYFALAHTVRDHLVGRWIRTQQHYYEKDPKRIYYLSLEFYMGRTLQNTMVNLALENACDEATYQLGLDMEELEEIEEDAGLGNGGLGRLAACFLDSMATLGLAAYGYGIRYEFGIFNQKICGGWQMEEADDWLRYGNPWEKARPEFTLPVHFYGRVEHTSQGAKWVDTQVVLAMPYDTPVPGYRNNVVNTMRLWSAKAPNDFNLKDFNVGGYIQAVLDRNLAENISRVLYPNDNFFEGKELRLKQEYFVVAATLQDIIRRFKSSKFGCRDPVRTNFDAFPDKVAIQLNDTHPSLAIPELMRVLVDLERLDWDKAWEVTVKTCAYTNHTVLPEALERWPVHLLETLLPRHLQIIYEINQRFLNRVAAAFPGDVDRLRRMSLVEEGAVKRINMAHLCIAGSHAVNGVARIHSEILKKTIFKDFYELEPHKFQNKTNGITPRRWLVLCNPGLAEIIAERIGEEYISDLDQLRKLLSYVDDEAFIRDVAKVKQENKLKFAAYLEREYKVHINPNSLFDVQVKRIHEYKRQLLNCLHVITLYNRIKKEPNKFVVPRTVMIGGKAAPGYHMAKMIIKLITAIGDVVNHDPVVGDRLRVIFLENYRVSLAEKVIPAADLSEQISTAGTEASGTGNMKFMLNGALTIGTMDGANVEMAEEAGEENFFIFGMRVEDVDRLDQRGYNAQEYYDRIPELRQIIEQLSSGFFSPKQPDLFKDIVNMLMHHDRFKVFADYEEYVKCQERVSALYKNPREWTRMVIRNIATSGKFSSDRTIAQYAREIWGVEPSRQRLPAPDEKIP
Assay: Competitive inhibition of rabbit muscle glycogen phosphorylase b assessed as inorganic phosphate release using alphaD glucose-1-phosphate as substrate at pH 6.8 by spectrophotometric analysis
Parameters: species or system Muscle tissue

OC[C@H]1O[C@@H](c2cc(O)cc(Cl)c2O)[C@H](O)[C@@H](O)[C@@H]1O
IC50: 95 µM

O=C1C=CC(=O)C([C@@H]2O[C@H](CO)[C@@H](O)[C@H](O)[C@H]2O)=C1
Ki: 1300 µM

OC[C@H]1O[C@@H](c2cc(O)ccc2O)[C@H](O)[C@@H](O)[C@@H]1O
IC50: 977 µM | Ki: 900 µM
